Source: ChEMBL document CHEMBL1143485, “The synthesis and biological evaluation of dopamine transporter inhibiting activity of substituted diphenylmethoxypiperidines” (Bioorg Med Chem Lett, 2005)

Tests used:
[1] = test system: Mus musculus; assay: Locomotor activity in mice after intraperitoneal administration at 17.8 […]; format: functional
[2] = target: Sodium-dependent dopamine transporter (Rattus norvegicus, UniProt P23977); assay: Displacement of [125I]RTI-55 dopamine transporter binding in rat striatal membrane; format: cell membranes, Striatum
Sequence of Sodium-dependent dopamine transporter (P23977 whole entry): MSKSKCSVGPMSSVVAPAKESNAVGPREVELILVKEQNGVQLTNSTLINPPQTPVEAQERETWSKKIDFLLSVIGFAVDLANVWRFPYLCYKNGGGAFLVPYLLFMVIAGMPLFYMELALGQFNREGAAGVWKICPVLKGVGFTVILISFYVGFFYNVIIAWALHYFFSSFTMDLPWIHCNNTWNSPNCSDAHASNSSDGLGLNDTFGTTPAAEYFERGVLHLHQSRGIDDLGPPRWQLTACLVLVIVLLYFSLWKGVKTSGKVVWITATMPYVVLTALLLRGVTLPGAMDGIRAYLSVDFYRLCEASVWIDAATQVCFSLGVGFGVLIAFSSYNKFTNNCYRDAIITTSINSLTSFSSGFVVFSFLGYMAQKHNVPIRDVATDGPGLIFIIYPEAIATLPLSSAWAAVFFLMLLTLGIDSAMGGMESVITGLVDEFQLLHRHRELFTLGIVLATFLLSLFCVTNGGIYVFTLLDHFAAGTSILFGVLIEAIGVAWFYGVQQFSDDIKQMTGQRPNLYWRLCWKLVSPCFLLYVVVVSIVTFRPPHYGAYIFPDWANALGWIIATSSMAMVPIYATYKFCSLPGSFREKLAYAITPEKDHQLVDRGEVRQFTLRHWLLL

| SMILES | Activity [1] [m/3h] | IC50 [2] [nM] |
| --- | --- | --- |
| CN1CCC(OC(c2ccc(F)cc2)c2ccc(F)cc2)CC1 | 34.8 |  |
| CC(OC1CCN(C)CC1)c1ccc(F)cc1 (centres undefined) |  | 264 |
| Cc1cccc(C(OC2CCN(C)CC2)c2ccccc2)c1 (centres undefined) |  | 293 |
| CN1CCC(OC(c2ccc(Cl)cc2)c2ccc(Cl)cc2)CC1 | 5.18 | 44 |
| COC(=O)[C@H]1[C@@H](OC(=O)c2ccccc2)C[C@@H]2CC[C@H]1N2C [COCAINE] | 16.7 |  |
| Fc1ccc(C(OCCN2CCN(CCCc3ccccc3)CC2)c2ccc(F)cc2)cc1 [VANOXERINE] | 26.3 |  |
| CN1CCC(OC(c2ccccc2)c2ccccc2)CC1 | 12.2 |  |
| CN1CCC(OC(c2ccccc2)c2ccc(Cl)cc2)CC1 (centres undefined) | 5.89 | 155 |
| CN1CCC(OC(c2ccccc2)c2ccc(F)cc2)CC1 (centres undefined) |  | 277 |
| CCCCN1CCC(OC(c2ccc(Cl)cc2)c2ccc(Cl)cc2)CC1 | 3.87 | 12.5 |
| Fc1ccc(CN2CCC(OC(c3ccc(Cl)cc3)c3ccc(Cl)cc3)CC2)cc1 |  | 50.6 |
